Results from patent US5264586A, “Analogs of calicheamicin gamma1I, method of making and using the same” (priority 1992, dated 1993).

Assays:
[1] = tested on: ATCC Capan-1 (pancreatic carcinoma); assay: Sulforhodamine B cytotoxicity assay, Capan-1; assay type: cell-based; conditions: 72 hours, SRB
Procedure: (§1) Sulfurodamine B Cytotoxicity Assay
(§2) Cytotoxicity assays using (-)-calicheamicinone were carried out as follows:
(§3) 1. Preparation of target cells in 96-well plates
(§4) g. Adjust volume of cell suspension with T.C. media to give a density of 1×10^5 cells/mL.
(§5) j. Incubate plates for 24 hours at 37° C., 5-10 percent CO2 in a humidified incubator.
(§6) a. Stock drug solutions were prepared by dissolving drug in the appropriate solvent (determined during chemical characterization studies) and sterile filtering the drug-solvent solution through a sterile 0.2 μ filter unit. An aliquot was taken from each filtered drug solution and the O.D. was measured to determine the drug concentration.
(§7) b. Dilute the stock drug solution prepared above with T.C. medium to the desired initial concentration (10^-2 -10^-4 M). A minimum volume of 220 μL of diluted drug is required per 96-well plate used in the assay.
(§8) b. Add 100 μL of the initial compound dilution to adjacent duplicate wells in Columns #2. (Four materials can be tested in duplicate per 96-well plate.)
(§9) d. Transfer 10 μL to the appropriate wells in Column #4 and continue to make 1:10 dilutions of compound across the plate through Column #12.
f. […]
(§10) g. Read plates on a microtiter plate reader at […].
(§11) IC50 values; i.e., the concentration of Compound required to kill one-half of the treated cells, were then calculated. […]

[2] = tested on: CHO (Chinese hampster ovary); assay: Sulforhodamine B cytotoxicity assay, CHO; assay type: cell-based; conditions: 72 hours, SRB
Procedure: as §1, §2, §3, §4, §5, §6, §7, §8, §9
f. […]
as §10, §11

[3] = tested on: ATCC HL-60 (promyeocytic leukemia); assay: Sulforhodamine B cytotoxicity assay, HL-60; assay type: cell-based; conditions: 72 hours, SRB
Procedure: as §1, §2, §3, §4, §5, §6, §7, §8, §9
f. […]
as §10, §11

[4] = tested on: ATCC HT-29 (Colon carcinoma); assay: Sulforhodamine B cytotoxicity assay, HT-29; assay type: cell-based; conditions: 72 hours, SRB
Procedure: as §1, §2, §3, §4, §5, §6, §7, §8, §9
f. […]
as §10, §11

[5] = tested on: ATCC MCF-7 (Breast carcinoma); assay: Sulforhodamine B cytotoxicity assay, MCF-7; assay type: cell-based; conditions: SRB
Procedure: as §1, §2, §3, §4, §5, §6, §7, §8, §9
f. […]
as §10, §11

[6] = tested on: ATCC Molt-4 (T-cell leukemia); assay: Sulforhodamine B cytotoxicity assay, Molt-4; assay type: cell-based; conditions: 72 hours, SRB
Procedure: as §1, §2, §3, §4, §5, §6, §7, §8, §9
f. […]
as §10, §11

[7] = tested on: NHDF (Normal human dermal fibroblast); assay: Sulforhodamine B cytotoxicity assay, NHDF; assay type: cell-based; conditions: 72 hours, SRB
Procedure: as §1, §2, §3, §4, §5, §6, §7, §8, §9
f. […]
as §10, §11

[8] = tested on: ATCC Ovcar 3 (Ovarian carcinoma); assay: Sulforhodamine B cytotoxicity assay, Ovcar 3; assay type: cell-based; conditions: 72 hours, SRB
Procedure: as §1, §2, §3, §4, §5, §6, §7, §8, §9
f. […]
as §10, §11

UCLA-P3 (lung carcinoma) = assay: Sulforhodamine B cytotoxicity assay, UCLA-P3; assay type: cell-based; conditions: SRB
Procedure: as §1, §2, §3, §4, §5, §6, §7, §8, §9
f. […]
as §10, §11

[9] = tested on: ATCC P-388 (Mouse leukemia); assay: Sulforhodamine B cytotoxicity assay, P-388; assay type: cell-based; conditions: SRB
Procedure: as §1, §2, §3, §4, §5, §6, §7, §8, §9
f. […]
as §10, §11

[10] = tested on: ATCC SK-MEL-28 (Melanoma); assay: Sulforhodamine B cytotoxicity assay, SK-MEL-28; assay type: cell-based; conditions: 72 hours, SRB
Procedure: as §1, §2, §3, §4, §5, §6, §7, §8, §9
f. […]
as §10, §11

H-322 (lung carcinoma) = assay: Sulforhodamine B cytotoxicity assay, H-322; assay type: cell-based; conditions: NCI-H322, 72 hours, SRB
Procedure: as §1, §2, §3, §4, §5, §6, §7, §8, §9
f. […]
as §10, §11

DNA = conditions: double stranded DNA; cited from earlier work
murine tumors = conditions: cited from earlier work

COC(=O)NC1=C2/C(=C\CSSSC)[C@](O)(C#C/C=C\C#C[C@@H]2O)CC1=O [(-)-calicheamicinone, (-)-Calicheamicinone]
IC50 [1]: 3100 nM | IC50 [2]: 63 µM | IC50 [3]: 200 nM | IC50 [4]: 28 µM | IC50 ([5]; 72 hours): 13 µM | IC50 [6]: 1 nM | IC50 [7]: 13 µM | IC50 [8]: 25 µM | IC50 (UCLA-P3 (lung carcinoma); 72 hours): 25 µM | IC50 ([9]; 72 hours): 390 nM | IC50 [10]: 25 µM

COc1cccc2c1C(=O)c1c(O)c3c(c(O)c1C2=O)C[C@@](O)(C(C)=O)C[C@@H]3O[C@H]1C[C@H](N)[C@H](O)[C@H](C)O1 [Daunomycin, daunomycin]
IC50 ([1]; Homo sapiens): 780 nM | IC50 [2]: 1.6 µM | IC50 (H-322 (lung carcinoma)): 1600 nM | IC50 ([3]; Homo sapiens): 200 nM | IC50 ([4]; Homo sapiens): 1.6 µM | IC50 ([5]; Homo sapiens, MCF7, 72 hours): 0.39 µM | IC50 ([6]; Homo sapiens): 0.1 nM | IC50 ([7]; Homo sapiens): 0.39 µM | IC50 ([8]; Homo sapiens): 0.39 µM | IC50 (UCLA-P3 (lung carcinoma); Homo sapiens, UCLA P-3, 72 hours): 1.6 µM | IC50 ([9]; Mus musculus, P388, 72 hours): 200 nM | IC50 ([10]; Homo sapiens): 1.6 µM

CCN[C@H]1CO[C@@H](O[C@H]2[C@H](O[C@H]3C#C/C=C\C#C[C@]4(O)CC(=O)C(NC(=O)OC)=C3/C4=C\CSSSC)O[C@H](C)[C@@H](NO[C@H]3C[C@H](O)[C@H](SC(=O)c4c(C)c(I)c(O[C@@H]5O[C@@H](C)[C@H](O)[C@@H](OC)[C@H]5O)c(OC)c4OC)[C@@H](C)O3)[C@@H]2O)C[C@@H]1OC [calicheamicin]
DNA cleavage site / sequence specificity (DNA): 5' side of a TCCT sequence | optimal dose against murine tumors (murine tumors; murine tumors): 0.5-1.5 microgram (μg) per kilogram (kg) of body weight | activity relative to adriamycin against murine tumors (murine tumors; vs adriamycin): about 1000 -fold more active

Neocarzinostatin
DNA cleavage site / sequence specificity (DNA): sequence-specificity in its DNA cleavage
